Columns and labels:
corn = experiment: Test B pre/postemergence corn; format: in vivo, Zea mays
Method in brief: (§1)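 Response is a visual 0-to-10 score relative to untreated plants, where 0 means no effect and 10 means complete control, taken twelve to sixteen days after application. Treatments went onto soil at planting and onto foliage of 1- to 4-leaf plants, using a surfactant-containing non-phytotoxic solvent.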

crabgrass = experiment: Test B pre/postemergence crabgrass; format: in vivo, Digitaria sanguinalis
Method in brief: as §1

velvetleaf = experiment: Test B pre/postemergence velvetleaf; format: in vivo, Abutilon theophrasti
Method in brief: as §1

giant foxtail = experiment: Test B pre/postemergence giant foxtail; format: in vivo, Setaria faberii
Method in brief: as §1

rice = experiment: Test B flood test rice; format: in vivo, Oryza sativa
Method in brief: (§2)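 Each value is a visual injury score relative to controls, with 10 meaning complete control and 0 no effect. Evaluation took place twelve to sixteen days after the 2-leaf-stage plants were treated and kept in the greenhouse.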

surinam grass = experiment: Test B pre/postemergence surinam grass; format: in vivo, Brachiaria decumbens
Method in brief: as §1

wheat = experiment: Test B pre/postemergence wheat; format: in vivo, Triticum aestivum
Method in brief: as §1

duck salad = experiment: Test B flood test duck salad; format: in vivo, Heteranthera limosa
Method in brief: as §2

purple nutsedge = experiment: Test B pre/postemergence purple nutsedge; format: in vivo, Cyperus rotundus
Method in brief: as §1

wild oat = experiment: Test B pre/postemergence wild oat; format: in vivo, Avena fatua
Method in brief: as §1

pigweed = experiment: Test B pre/postemergence pigweed; format: in vivo, Amaranthus retroflexus
Method in brief: as §1

soybean = experiment: Test B pre/postemergence soybean; format: in vivo, Glycine max
Method in brief: as §1

bedstraw = experiment: Test B pre/postemergence bedstraw; format: in vivo, Galium aparine; details: Postemergence, Rate 62 g/ha; scale 0 to 10, 0 is no effect, 10 is complete control
Method in brief: as §1

blackgrass = experiment: Test B pre/postemergence blackgrass; format: in vivo, Alopecurus myosuroides
Method in brief: as §1

morningglory = experiment: Test B pre/postemergence morningglory; format: in vivo, Ipomoea hederacea
Method in brief: as §1

smallflower flatsedge = experiment: Test B flood test smallflower flatsedge; format: in vivo, Cyperus difformis
Method in brief: as §2

[1] = Postemergence, Rate 62 g/ha, scale 0 to 10, 0 is no effect, 10 is complete control
[2] = Postemergence, Rate 125 g/ha, scale of 0 to 10 where 0 is no effect and 10 is complete control
[3] = Postemergence, Rate 250 g/ha, scale of 0 to 10, 0 is no effect, 10 is complete control
[4] = Preemergence, Rate 62 g/ha, scale of 0 to 10 where 0 is no effect and 10 is complete control
[5] = Preemergence, Rate 125 g/ha, scale of 0 to 10 where 0 is no effect and 10 is complete control
[6] = Preemergence, Rate 250 g/ha, scale 0 to 10 (0 no effect, 10 complete control)
[7] = Preemergence, Rate 500 g/ha, scale of 0 to 10 where 0 is no effect and 10 is complete control
[8] = Rate 500 g/ha, Postemergence, scale 0 to 10, 0 is no effect, 10 is complete control
[9] = Rate 62 g/ha, flood test species, Pre-emergence, visual evaluation after twelve to sixteen days
[10] = Rate 125 g/ha, under heading Pre-emergence, flood test species, visual evaluation after twelve to sixteen days
[11] = Rate 250 g/ha, Pre-emergence (flood test species), scale 0 to 10, 0 is no effect, 10 is complete control
[12] = Rate 500 g/ha, Pre-emergence section of Table B, 0 to 10 scale (0 no effect, 10 complete control)

CC[C@H](C)n1c(=O)on(C(=O)N(c2ccc(Cl)cc2)C(C)C)c1=O [Compound 664]
Plant response rating, Corn (corn; [1]): 0 | Corn plant response rating (corn; [2]): 0 | Corn plant response rating (corn; [3]): 0 | Corn plant response rating (corn; [4]): 0 | Corn plant response rating (corn; [5]): 0 | Plant response rating, Corn (corn; [6]): 0 | Plant response rating, Corn (corn; [7]): 0 | Corn plant response rating (corn; [8]): 0 | Plant response rating, Crabgrass (crabgrass; [1]): 0 | Crabgrass plant response rating (crabgrass; [2]): 1 | Crabgrass plant response rating (crabgrass; [3]): 9 | Crabgrass plant response rating (crabgrass; [4]): 4 | Crabgrass plant response rating (crabgrass; [5]): 8 | Plant response rating, Crabgrass (crabgrass; [6]): 9 | Plant response rating, Crabgrass (crabgrass; [7]): 10 | Crabgrass plant response rating (crabgrass; [8]): 9 | Plant response rating, Velvetleaf (velvetleaf; [1]): 0 | Velvetleaf plant response rating (velvetleaf; [2]): 0 | Velvetleaf plant response rating (velvetleaf; [4]): 0 | Velvetleaf plant response rating (velvetleaf; [5]): 0 | Plant response rating, Velvetleaf (velvetleaf; [6]): 5 | Plant response rating, Velvetleaf (velvetleaf; [7]): 5 | Velvetleaf plant response rating (velvetleaf; [8]): 6 | Plant response rating, Giant foxtail (giant foxtail; [1]): 2 | Giant foxtail plant response rating (giant foxtail; [2]): 6 | Giant foxtail plant response rating (giant foxtail; [3]): 9 | Giant foxtail plant response rating (giant foxtail; [4]): 9 | Giant foxtail plant response rating (giant foxtail; [5]): 10 | Plant response rating, Giant foxtail (giant foxtail; [6]): 10 | Plant response rating, Giant foxtail (giant foxtail; [7]): 10 | Giant foxtail plant response rating (giant foxtail; [8]): 9 | Plant response rating, Rice (0 to 10 scale, 0 is no effect, 10 is complete control) (rice; [9]): 0 | Rice plant response rating (0 to 10 scale, 0 is no effect, 10 is complete control) (rice; [10]): 0 | Rice plant response rating (rice; [11]): 0 | Rice plant response rating (rice; [12]): 0 | Plant response rating, B. signalgrass (surinam grass; [1]): 0 | Plant response rating, B. signalgrass (surinam grass; [2]): 0 | B. signalgrass plant response rating (surinam grass; [3]): 4 | B. signalgrass plant response rating (surinam grass; [4]): 1 | B. signalgrass plant response rating (surinam grass; [5]): 5 | Plant response rating, B. signalgrass (surinam grass; [6]): 5 | Plant response rating, B. signalgrass (surinam grass; [7]): 8 | B. signalgrass plant response rating (surinam grass; [8]): 7 | Plant response rating, Wheat (wheat; [1]): 0 | Wheat plant response rating (wheat; [2]): 0 | Wheat plant response rating (wheat; [4]): 0 | Wheat plant response rating (wheat; [5]): 0 | Plant response rating, Wheat (wheat; [6]): 0 | Plant response rating, Wheat (wheat; [7]): 5 | Wheat plant response rating (wheat; [8]): 2 | Plant response rating, Ducksalad (0 to 10 scale, 0 is no effect, 10 is complete control) (duck salad; [9]): 0 | Ducksalad plant response rating (0 to 10 scale, 0 is no effect, 10 is complete control) (duck salad; [10]): 0 | Ducksalad plant response rating (duck salad; [11]): 0 | Ducksalad plant response rating (duck salad; [12]): 0 | Plant response rating, Nutsedge (purple nutsedge; [1]): 0 | Nutsedge plant response rating (purple nutsedge; [2]): 0 | Nutsedge plant response rating (purple nutsedge; [4]): 0 | Nutsedge plant response rating (purple nutsedge; [5]): 0 | Plant response rating, Nutsedge (purple nutsedge; [6]): 0 | Plant response rating, Nutsedge (purple nutsedge; [7]): 0 | Nutsedge plant response rating (purple nutsedge; [8]): 0 | Plant response rating, Wild oats (wild oat; [1]): 0 | Wild oats plant response rating (wild oat; [2]): 0 | Wild oats plant response rating (wild oat; [4]): 0 | Wild oats plant response rating (wild oat; [5]): 3 | Plant response rating, Wild oats (wild oat; [6]): 3 | Plant response rating, Wild oats (wild oat; [7]): 7 | Wild oats plant response rating (wild oat; [8]): 7 | Plant response rating, Redroot pigweed (pigweed; [1]): 0 | Redroot pigweed plant response rating (pigweed; [2]): 2 | Redroot pigweed plant response rating (pigweed; [4]): 2 | Redroot pigweed plant response rating (pigweed; [5]): 7 | Plant response rating, Redroot pigweed (pigweed; [6]): 7 | Plant response rating, Redroot pigweed (pigweed; [7]): 10 | Redroot pigweed plant response rating (pigweed; [8]): 6 | Plant response rating, Soybean (soybean; [1]): 3 | Soybean plant response rating (soybean; [2]): 4 | Soybean plant response rating (soybean; [4]): 0 | Soybean plant response rating (soybean; [5]): 0 | Plant response rating, Soybean (soybean; [6]): 0 | Plant response rating, Soybean (soybean; [7]): 0 | Plant response rating, Bedstraw (bedstraw): 0 | Plant response rating, Blackgrass (blackgrass; [1]): 4 | Blackgrass plant response rating (blackgrass; [2]): 7 | Blackgrass plant response rating (blackgrass; [3]): 9 | Blackgrass plant response rating (blackgrass; [4]): 5 | Blackgrass plant response rating (blackgrass; [5]): 6 | Plant response rating, Blackgrass (blackgrass; [6]): 6 | Plant response rating, Blackgrass (blackgrass; [7]): 8 | Blackgrass plant response rating (blackgrass; [8]): 9 | Plant response rating, Morningglory (morningglory; [1]): 0 | Morningglory plant response rating (morningglory; [2]): 2 | Morningglory plant response rating (morningglory; [3]): 9 | Morningglory plant response rating (morningglory; [4]): 0 | Morningglory plant response rating (morningglory; [5]): 0 | Plant response rating, Morningglory (morningglory; [6]): 0 | Plant response rating, Morningglory (morningglory; [7]): 4 | Morningglory plant response rating (morningglory; [8]): 10 | Plant response rating, S. Flatsedge (0 to 10 scale, 0 is no effect, 10 is complete control) (smallflower flatsedge; [9]): 0 | S. Flatsedge plant response rating (0 to 10 scale, 0 is no effect, 10 is complete control) (smallflower flatsedge; [10]): 0 | S. Flatsedge plant response rating (smallflower flatsedge; [11]): 0 | S. Flatsedge plant response rating (smallflower flatsedge; [12]): 0

Source: US6737383B1, “Herbicidal oxadiazolidines” (priority 1999, dated 2004)
